1 compound from patent EP0351625B1, “Anti-HIV activity of BV-3608” (Bristol-Myers Squibb Company, priority 1988, dated 1990) can be followed below.

Each structure is given as a SMILES string.

Series [1] in a line: Cytotoxicity on uninfected MT-4 cells (viable cell count, trypan blue dye exclusion). As to conditions: human. It is filed as cell-based. The protocol: (§1) MT-4 cells are maintained at 37°C in the complete medium. Two days before the start of an experiment, viable cells are counted by the trypan blue dye exclusion method and the concentration is adjusted to 30 x 10⁴ cells/mL.
The test substance is dissolved in dimethylsulfoxide (DMSO) and the solutions are then diluted with complete medium to concentrations of 10, 5.0, 2.5, and 1.25 mcg/ml to provide test solutions. Matched portions of HTLV-IIIB infected and uninfected MOLT-4 cells are adjusted to 60 x 10⁴ cells/mL and mixed with the same volume of diluted test solution to make the final concentration of 30 x 10⁴ cells/mL, and 5.0, 2.5, […], and 0.63 mcg/mL of test substance. To measure anti-HIV activity, the number of viable cells surviving in the test medium are counted by the trypan blue dye-exclusion method on day 3 and day 6 after infection of the cells.
Figure 1 illustrates the inhibition of cytopathic effect of the HIV virus on MT-4 cells by Compound No. 28567. First, the unshaded bars show the lack of cytotoxicity of the compound on uninfected MT-4 cells. Only at concentrations of 28567 in excess of 30 µg/ml is a noticeable or consistent reduction in the number of cells observed after 3 or 6 days, and even at 120 mg/ml, 60-70% of the cells survive.

The subject of series [2] is MOLT-4 and MOLT-4/HTLV-IIIB. Nature of the series: Cell fusion / giant cell formation in MOLT-4 and MOLT-4/HTLV-IIIB co-culture (cell size distribution). It is filed as cell-based. The note with it: 25 µg/ml in medium, mixed culture; 11.8% without compound. The protocol: The effect on cell fusion which results in cell to cell infection and giant cell formation may be examined as follows. MOLT-4 and its virus-producing cell, MOLT-4/HTLV-IIIB are mixed in 1:1 in proportion of cell number and adjusted to a final concentration of 5 x 10⁵ cells/ml with the medium containing various concentrations of compounds, and then incubated for 10 hours in a CO₂ incubator. After incubation, the distribution of cell size is measured by a cell multisizer (Coulter Electronics Ltd., Luton, England). Viable cells are counted by trypan blue dye exclusion method. Giant cell formation is observed under a phase- contrast microscope. Particles with diameters of from 3 to 100 µm in diameter are observed in the co-cultures. Only those particles having a diameter of more than 9 µm are considered to be cells. Cell sizes in each of the cultures of MOLT-4 or MOLT-4/HTLV-IIIB are similar, and the proportion of cell particles with 12-14 µm diameters are virtually the same in each culture. The percentage of cell particles having more than a 20 µm diameter was 2.7% and in the MOLT-4 cell culture, and 2.4% in the MOLT-4/HTLV-IIIB cell culture. […] This is a reflection of the infectivity by cell-to-cell fusion of the MOLT-4/HTLV-IIIB cells for the uninfected MOLT-4 cells. The test method measures the ability of test substances to prevent or reduce this effect. […]

The nature of series [3]: Acute toxicity in mice after single intravenous and intramuscular administrations. As to conditions: mouse, in vivo. The procedure: The acute toxicity of Compound No. 28567 was determined in mice after single intravenous and intramuscular administrations.
The test system of series [4] is HTLV-IIIB infected MT-4 cells. Nature of the series: Inhibition of cytopathic effect of HIV on infected MT-4 cells (viable cell count). As to conditions: Human immunodeficiency virus 1, IIIB, MT4; HIV-infected MT-4 cells, 3 or 6 days (Figure 1); read-out: concentration affording virtually complete protection of MT-4 cells. It counts as cell-based. The procedure:
The cell line MT-4 disclosed by Harada, S. et al., in Virology, Vol. 146, pp. 272-281 (1985) is appropriate. This cell line features rapid and efficient replication of HTLV-III, followed by cytolysis.
as §1
Infection of the MT-4 cells with the virus is made at a multiplicity of infection (MOI) of 0.002. MT-4 cells (60 x 10⁴ cells/mL) are mixed with a 1:100 dilution of the viral preparation and incubated for 1 hour at 37°C for adsorption of the virus. After adsorption, HTLV-IIIB infected MT-4 cells are washed once and resuspended with complete medium. […]
The test substance is dissolved in dimethylsulfoxide (DMSO) and the solutions are then diluted with complete medium to concentrations of 10, 5.0, 2.5, and 1.25 mcg/ml to provide test solutions. […] To measure anti-HIV activity, the number of viable cells surviving in the test medium are counted by the trypan blue dye-exclusion method on day 3 and day 6 after infection of the cells. […]
A general note: Damage to the host cells serves as the signal in cytopathic effect assays.

Turning to `CN[C@@H]1[C@H](O[C@@H]2OC[C@@H](O)[C@H](O)[C@H]2O)[C@@H](O)[C@H](O[C@H]2c3cc(C)c(C(=O)N[C@H](C)C(=O)O)c(O)c3-c3c(cc4c(c3O)C(=O)c3cc(OC)cc(O)c3C4=O)[C@@H]2O)O[C@@H]1C` [Compound No. 28567], the MCC in series [1] (after 3 or 6 days (Figure 1), read-out: concentration at which a noticeable or consistent reduction in the number of cells is observed) is above 30 µg/mL. For the same compound, the viability in series [1] (at 120 mg/ml (so in the source), 3 or 6 days, read-out: cells survive) fell in the range of 60 to 70%. In addition, the “proportion of particles exceeding 20 µm” value in series [2] turned out to be 2.7%. Further, the sign of toxicity result in series [3] (400 mg/kg) was “no sign of toxicity”. Further, the LD50 in series [3] (iv, read-out: LD₅₀) came out at 140 mg/kg. For the same compound, the minimal effective concentration in series [4] is at least 3.5 µg/mL.
